In PubChem BioAssay (NCI):
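In this assay, cells in 96-well plates receive the compound at five concentrations for 48 hours. Endpoints are linearly interpolated between the surrounding concentrations. GI50 marks 50% less growth. The concentration for full growth arrest is given as TGI.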

Assays:
Experiment in all cases: NCI-60 cell line screen, 48 h
[1] = system: 786-0 renal
[2] = system: A549 NSCLC
[3] = system: ACHN renal
[4] = system: BT-549 breast
[5] = system: CAKI-1 renal
[6] = system: COLO 205 colon
[7] = system: EKVX NSCLC
[8] = system: HCC-2998 colon
[9] = system: HCT-116 colon
[10] = system: HCT-15 colon
[11] = system: HOP-62 NSCLC
[12] = system: HOP-92 NSCLC
[13] = system: HS 578T breast
[14] = system: HT29 colon
[15] = system: IGROV1 ovarian
[16] = system: K-562 leukemia
[17] = system: LOX IMVI melanoma
[18] = system: M14 melanoma
[19] = system: MCF7 breast
[20] = system: MDA-MB-231 breast
[21] = system: MDA-MB-435
[22] = system: NCI-H226 lung
[23] = system: NCI-H23 lung
[24] = system: NCI-H460 lung
[25] = system: NCI-H522 lung
[26] = system: NCI/ADR-RES ovarian
[27] = system: OVCAR-3 ovarian
[28] = system: OVCAR-4 ovarian
[29] = system: OVCAR-5 ovarian
[30] = system: OVCAR-8 ovarian
[31] = system: PC-3 prostate
[32] = system: RPMI-8226 leukemia
[33] = system: RXF 393 renal
[34] = system: SF-268 CNS
[35] = system: SF-295 CNS
[36] = system: SF-539 CNS
[37] = system: SK-MEL-2 melanoma
[38] = system: SK-MEL-28 melanoma
[39] = system: SK-OV-3 ovarian
[40] = system: SNB-19 CNS
[41] = system: SNB-75 CNS
[42] = system: SW-620 colon
[43] = system: TK-10 renal
[44] = system: U251 CNS
[45] = system: UACC-257 melanoma
[46] = system: UACC-62 melanoma
[47] = system: UO-31 renal
[48] = system: A498 renal
[49] = system: CCRF-CEM leukemia
[50] = system: DU-145 prostate
[51] = system: HL-60(TB) leukemia
[52] = system: SN12C renal
[53] = system: KM12 colon
[54] = system: MALME-3M melanoma
[55] = system: MOLT-4 leukemia
[56] = system: SK-MEL-5 melanoma
[57] = system: T-47D breast

SMILES: Cc1cc(=O)[nH]o1
- TGI [1]: > 100 µM
- TGI [2]: > 100 µM
- TGI [3]: > 100 µM
- TGI [4]: > 100 µM
- TGI [5]: > 100 µM
- TGI [6]: > 100 µM
- TGI [7]: > 100 µM
- TGI [8]: > 100 µM
- TGI [9]: > 100 µM
- TGI [10]: > 100 µM
- TGI [11]: > 100 µM
- TGI [12]: > 100 µM
- TGI [13]: > 100 µM
- TGI [14]: > 100 µM
- TGI [15]: > 100 µM
- TGI [16]: > 100 µM
- TGI [17]: > 100 µM
- TGI [18]: > 100 µM
- TGI [19]: > 100 µM
- TGI [20]: > 100 µM
- TGI [21]: > 100 µM
- TGI [22]: > 100 µM
- TGI [23]: > 100 µM
- TGI [24]: > 100 µM
- TGI [25]: > 100 µM
- TGI [26]: > 100 µM
- TGI [27]: > 100 µM
- TGI [28]: > 100 µM
- TGI [29]: > 100 µM
- TGI [30]: > 100 µM
- TGI [31]: > 100 µM
- TGI [32]: > 100 µM
- TGI [33]: > 100 µM
- TGI [34]: > 100 µM
- TGI [35]: > 100 µM
- TGI [36]: > 100 µM
- TGI [37]: > 100 µM
- TGI [38]: > 100 µM
- TGI [39]: > 100 µM
- TGI [40]: > 100 µM
- TGI [41]: > 100 µM
- TGI [42]: > 100 µM
- TGI [43]: > 100 µM
- TGI [44]: > 100 µM
- TGI [45]: > 100 µM
- TGI [46]: > 100 µM
- TGI [47]: > 100 µM

SMILES: c1cc(-c2ccc(-c3ccc(C4=NC5CCCCC5N4)cc3)o2)ccc1C1=NC2CCCCC2N1 (centres undefined)
- TGI [1]: 2.81 µM
- TGI [48]: 9.04 µM
- TGI [2]: 3.14 µM
- TGI [3]: 5.7 µM
- TGI [5]: > 100 µM
- TGI [49]: > 100 µM
- TGI [50]: 3.33 µM
- TGI [7]: 3.42 µM
- TGI [8]: 2.56 µM
- TGI [10]: 79.4 µM
- TGI [51]: 4.86 µM
- TGI [14]: 2.89 µM
- TGI [18]: 3.01 µM
- TGI [19]: 2.53 µM
- TGI [21]: 4.84 µM
- TGI [26]: > 100 µM
- TGI [29]: 4.55 µM
- TGI [31]: 2.78 µM
- TGI [52]: 3.03 µM
- TGI [40]: 2.8 µM
- TGI [42]: > 100 µM
- TGI [43]: 16.4 µM
- TGI [45]: 3.28 µM
- TGI [46]: 3.14 µM
- TGI [47]: 6.89 µM

SMILES: CC(C)(C)c1[nH]cnc1/C=c1\[nH]c(=O)/c(=C/c2ccccc2)[nH]c1=O
- GI50 [1]: < 0.01 µM
- TGI [1]: 40.7 µM
- GI50 [48]: < 0.01 µM
- TGI [48]: 0.51 µM
- GI50 [2]: 0.0181 µM
- TGI [2]: 41.5 µM
- GI50 [3]: < 0.01 µM
- TGI [3]: 35.7 µM
- GI50 [4]: 0.0139 µM
- TGI [4]: 12.1 µM
- GI50 [5]: < 0.01 µM
- TGI [5]: 32.7 µM
- GI50 [49]: < 0.01 µM
- TGI [49]: > 68.4 µM
- GI50 [6]: 0.013 µM
- TGI [6]: 0.101 µM
- GI50 [50]: 0.0159 µM
- TGI [50]: 31.3 µM
- GI50 [7]: 0.0482 µM
- TGI [7]: 35.5 µM
- GI50 [8]: 0.0307 µM
- TGI [8]: 33.1 µM
- GI50 [9]: < 0.01 µM
- TGI [9]: 15.4 µM
- GI50 [10]: < 0.01 µM
- TGI [10]: 13.5 µM
- GI50 [51]: < 0.01 µM
- TGI [51]: 11.1 µM
- GI50 [11]: < 0.01 µM
- TGI [11]: 25.8 µM
- GI50 [12]: < 0.0118 µM
- TGI [12]: 9.11 µM
- GI50 [13]: < 0.01 µM
- TGI [13]: > 71.8 µM
- GI50 [14]: < 0.01 µM
- TGI [14]: 9.44 µM
- GI50 [15]: 0.0134 µM
- TGI [15]: 24.2 µM
- GI50 [16]: < 0.01 µM
- TGI [16]: > 100 µM
- GI50 [53]: < 0.01 µM
- TGI [53]: 7.44 µM
- GI50 [17]: < 0.0121 µM
- TGI [17]: 17.7 µM
- GI50 [18]: < 0.01 µM
- TGI [18]: 17.1 µM
- GI50 [54]: < 0.105 µM
- TGI [54]: 29.8 µM
- GI50 [19]: 0.0203 µM
- TGI [19]: 17 µM
- GI50 [20]: 0.023 µM
- TGI [20]: 30.9 µM
- GI50 [55]: 0.0215 µM
- TGI [55]: 19.7 µM
- GI50 [22]: 0.0275 µM
- TGI [22]: 3.69 µM
- GI50 [23]: 0.03 µM
- TGI [23]: 35.2 µM
- GI50 [24]: < 0.01 µM
- TGI [24]: 17.7 µM
- GI50 [25]: < 0.01 µM
- TGI [25]: 0.159 µM
- GI50 [26]: < 0.01 µM
- TGI [26]: > 100 µM
- GI50 [27]: < 0.01 µM
- TGI [27]: 19.2 µM
- GI50 [28]: 0.151 µM
- TGI [28]: 55.3 µM
- GI50 [29]: 0.0335 µM
- TGI [29]: 86.1 µM
- GI50 [30]: < 0.0125 µM
- TGI [30]: 50.8 µM
- GI50 [31]: < 0.01 µM
- TGI [31]: 36.1 µM
- GI50 [32]: < 0.0176 µM
- TGI [32]: 13.2 µM
- GI50 [33]: < 0.01 µM
- TGI [33]: 56.8 µM
- GI50 [34]: < 0.0123 µM
- TGI [34]: > 70.1 µM
- GI50 [35]: < 0.01 µM
- TGI [35]: 20.5 µM
- GI50 [36]: < 0.01 µM
- TGI [36]: 0.0321 µM
- GI50 [37]: < 0.0108 µM
- TGI [37]: 30.7 µM
- GI50 [38]: 10.5 µM
- TGI [38]: 28.3 µM
- GI50 [56]: < 0.0133 µM
- TGI [56]: 0.137 µM
- GI50 [39]: < 0.01 µM
- TGI [39]: 60.9 µM
- GI50 [52]: < 0.0144 µM
- TGI [52]: 69.6 µM
- GI50 [40]: < 0.01 µM
- TGI [40]: > 100 µM
- GI50 [41]: < 0.01 µM
- TGI [41]: 44 µM
- GI50 [42]: < 0.01 µM
- TGI [42]: 50.7 µM
- GI50 [57]: < 0.0592 µM
- TGI [57]: 30.9 µM
- GI50 [43]: 14.1 µM
- TGI [43]: > 100 µM
- GI50 [44]: < 0.01 µM
- TGI [44]: 43.9 µM
- GI50 [45]: 6.32 µM
- TGI [45]: 22.6 µM
- GI50 [46]: < 0.01 µM
- TGI [46]: 21.2 µM
- GI50 [47]: < 0.0144 µM
- TGI [47]: 27.6 µM
